Laboratory results from US12295937B2, “Psychoactive medicines and their use for treating psychiatric and neurological conditions and disorders” (Transcend Therapeutics, Inc., priority 2021, dated 2025).

Key:
[1] = Rat Forced Swim Test (FST); assay type: in vivo; settings: for Reduction in immobility: single dose 30 min before test
Source text: The Forced Swim Test (FST) is a classic, and the most used preclinical behavioral assay to screen compounds with antidepressant-like activity and has high predictive and face validity (Porsolt et al. (1977) Nature 266:730; Borsini and Meli (1988) Psychopharmacology 94:147). The premise of the FST is that when rats are placed into a cylinder filled with water, they will initially try to escape, but over time will become immobile. This increased immobility reflects behavioral despair, modeling a depressive-like state.
Forced Swim Test (EST): In the FST trial, rats were placed in a circular plexiglass container filled with water, with no means of escape. Water temperature was maintained at 22-25° C. and changed for every animal. After an acclimation period, rats were timed for inactivity (failure to struggle), activity, swim time and climbing time. Day 1 consisted of a 15 min acclimation trial, and Day 2 (24 h later) consisted of the 5 min test. A time sampling procedure was employed where animals were observed every 5 sec and scored for immobility, swimming, or climbing. Fluoxetine (10 mg/kg, IP, Sigma Aldrich) or 0.9% sterile saline vehicle (vehicle 3× group) were administered 23.5, 5, and 1 h before testing in the FST. […] The experimenter was blinded to treatment.
Forced Swim Test: In the FST trial, rats were placed in a circular plexiglass container filled with water, with no means of escape. Water temperature was maintained at 22-25° C. and changed for every animal. After an acclimation period, rats were timed for inactivity (failure to struggle), activity, swim time and climbing time. Day 1 consisted of a 15 min acclimation trial, and Day 2 (24 h later) consisted of the 5 min test. A time sampling procedure was employed where animals were observed every 5 sec and scored for immobility, swimming, or climbing. Fluoxetine (10 mg/kg, IP, Sigma Aldrich) or 0.9% sterile saline vehicle (vehicle 3× group) were administered 23.5, 5, and 1 h before testing in the FST. 2C-B (2.5, 10, or 20 mg/kg, IP, Cayman Chemical) or 0.9% saline vehicle (vehicle 1× group) were administered 30 min prior to FST testing. The experimenter was blinded to treatment.
Drug Treatment: Fluoxetine (10 mg/kg, IP, Sigma Aldrich) or 0.9% sterile saline vehicle were administered 23.5, 5, and 1 h before testing in the FST. […] Control animals received fluoxetine alone, methylone alone, or saline vehicle.
Forced Swim Test: In the FST trial, rats were placed in a circular plexiglass container filled with water, with no means of escape. Water temperature was maintained at 22-25° C. and changed for every animal. After an acclimation period, rats were timed for inactivity (failure to struggle), activity, swim time and climbing time. The experimenter and scorer were blind to treatment group. Day 1 consisted of a 15 min acclimation trial, and Day 2 (24 h later) consisted of the 5 min test. A time sampling procedure was employed where animals were observed every 5 sec and scored for immobility, swimming, or climbing.
The FST was performed and scored by an experimenter blind to treatment group according to standard protocols and based on a “modified FST” procedure (Slattery and Cryan (2012) Nat Protoc, 7:1009). Briefly, rats were placed in a circular plexiglass container (29.2 cm diameter, 49.5 cm height) filled with water to a depth of 30 cm so rats could not support themselves by touching the bottom of the tank. Water was maintained at 22-25° C. and was changed for every animal. Day 1 (Training) consisted of a 15 min acclimation trial, and Day 2 (Testing, 24 h later) consisted of the 5 min test. A time sampling procedure was employed where animals were observed every 5 seconds for the duration of the test session (60 counts or 5 minutes) and scored for immobility (defined as the failure to struggle), swimming (defined as a circular movement around the tank), or climbing (defined as an upwards escape behavior). […]

[2] = biological target: Human serotonin 5HT2B receptor (Homo sapiens, UniProt P41595); assay: Competitive radioligand binding to 5HT2B receptor membranes
Chain of Human serotonin 5HT2B receptor (P41595 whole entry): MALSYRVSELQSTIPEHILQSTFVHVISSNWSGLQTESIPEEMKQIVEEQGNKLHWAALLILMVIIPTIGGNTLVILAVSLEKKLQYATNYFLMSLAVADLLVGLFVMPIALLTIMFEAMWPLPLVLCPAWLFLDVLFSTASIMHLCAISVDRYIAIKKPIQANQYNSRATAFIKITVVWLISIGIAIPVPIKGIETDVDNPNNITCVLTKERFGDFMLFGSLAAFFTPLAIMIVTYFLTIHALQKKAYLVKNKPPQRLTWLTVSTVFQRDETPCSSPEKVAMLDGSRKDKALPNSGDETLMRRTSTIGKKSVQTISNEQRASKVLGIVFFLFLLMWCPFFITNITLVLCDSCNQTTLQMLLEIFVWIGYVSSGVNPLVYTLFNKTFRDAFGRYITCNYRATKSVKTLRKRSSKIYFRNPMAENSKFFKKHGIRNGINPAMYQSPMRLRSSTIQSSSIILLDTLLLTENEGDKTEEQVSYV
Method: Human serotonin 5HT2B receptor membrane preparations were divided into aliquots. On the day of the assay, membranes were diluted at 1:200 in incubation buffer. […] To each well was added 150 μL membrane preparation, 50 μL test compound, non-specific compound, or buffer alone, as well as 50 μL radioligand. The plate was incubated at 35° C. for 90 minutes with gentle agitation. […] For each concentration of drug, non-specific binding was subtracted from total binding to give specific binding. […] Ki was subsequently calculated using the ChengPrusoff equation.

[3] = biological target: T1, 168 GPCRs (Homo sapiens, UniProt P34998); assay: β-arrestin GPCR screen (PathHunter / GPCRmax), agonist mode; assay type: cell-based; settings: CRHR1, 1 uM
T1 construct: host or cells: PathHunter cell lines
T1 sequence (P34998 24-415): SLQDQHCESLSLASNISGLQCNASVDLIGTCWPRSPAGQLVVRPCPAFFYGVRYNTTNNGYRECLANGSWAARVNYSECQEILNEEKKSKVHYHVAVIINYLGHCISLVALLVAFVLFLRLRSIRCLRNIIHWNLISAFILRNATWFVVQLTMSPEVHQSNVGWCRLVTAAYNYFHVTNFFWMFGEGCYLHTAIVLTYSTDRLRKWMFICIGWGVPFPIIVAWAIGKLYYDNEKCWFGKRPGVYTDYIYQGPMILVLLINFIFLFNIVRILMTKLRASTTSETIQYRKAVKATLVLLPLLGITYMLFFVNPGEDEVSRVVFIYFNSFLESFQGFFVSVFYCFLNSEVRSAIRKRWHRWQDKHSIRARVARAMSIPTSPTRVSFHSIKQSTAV
Method: (§1) For agonist determination, cells were incubated with sample to induce response. […] Vehicle concentration was 1%.

[4] = biological target: T2, 168 GPCRs (Homo sapiens, UniProt Q99788); assay: as above; assay type: cell-based; settings: CMKLR1, 1 uM
T2 construct: host or cells: PathHunter cell lines
T2 sequence (Q99788 whole entry): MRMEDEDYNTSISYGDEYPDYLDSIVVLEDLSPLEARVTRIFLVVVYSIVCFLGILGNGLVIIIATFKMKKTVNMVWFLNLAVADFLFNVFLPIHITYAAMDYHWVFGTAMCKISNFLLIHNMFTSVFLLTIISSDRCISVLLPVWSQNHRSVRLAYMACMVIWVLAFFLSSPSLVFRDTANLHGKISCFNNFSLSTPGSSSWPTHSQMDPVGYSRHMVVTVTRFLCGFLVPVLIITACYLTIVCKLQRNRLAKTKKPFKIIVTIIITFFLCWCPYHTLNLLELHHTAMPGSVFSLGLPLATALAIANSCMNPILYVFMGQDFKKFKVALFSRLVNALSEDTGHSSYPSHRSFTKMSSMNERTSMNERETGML
Method: as §1

[5] = Mouse fear extinction paradigm (PTSD model); assay type: in vivo; settings: 30 mg/kg IP 30 min before extinction training; day 3
Source text: (FIG. 9A) Schematic of experimental design. A single CS-US (tone-shock) pairing on day 1 was followed by 6 CS presentations in a novel context (context B). […] On day 3, the time spent freezing to the CS was quantified. […] (FIG. 9C) No locomotor changes were observed on day 3 (t(26)=1.073, p>0.05). Data are mcan+/−SEM.
FIGS. 10A-10B: MBDB improves fear extinction in a PTSD mouse model. A single CS-US (tone-shock) pairing on day 1 was followed by 6 conditioned stimulus (CS) presentations in a novel context (context B). MBDB or saline vehicle was injected 30 min prior to extinction training on day 2. The time spent freezing to the CS was quantified on day 2. […] Data are mean+/−SEM. N=10 for MBDB group (5 mg/kg, IP) and N=16 for saline control group. **p<0.01 vs. vehicle control group.
Effective PTSD treatments facilitate the disassociation between a traumatic memory and the patient's fear response, making cues for the traumatic memory evoke less of a fear response. This is modeled in the mouse fear extinction paradigm (see FIG. 9A) which takes place over 3 days. […] On day 3 (extinction recall), the mice are “asked” if that tone (CS) still elicits a fearful response, as measured by the time spent freezing when the tone is presented. […]

In the case of CNC(C)C(=O)c1ccc2c(c1)OCO2 (stereo not drawn) [Methylone, 3,4-methylenedioxy-N-methylcathinone], the Reduction in immobility ([1]; 15 mg/kg IP) is reported as 99%, the “Antidepressant-like effect vs. vehicle” value ([1]; 15 mg/kg PO, 2 hours before test) is reported as “significant antidepressant-like effect” and the Reduction in immobility ([1]; 30 mg/kg IP) is reported as 96%. For the same compound, the “Reduced immobility vs. vehicle” value ([1]; Methylone 5 mg/kg IP after three prior doses of fluoxetine 10 mg/kg) was 62%, the “Reduced immobility vs. vehicle” value ([1]; Methylone alone 5 mg/kg IP (Example 8)) was 71% and the Climbing behavior ([1]; doses as worded) was “significantly increased climbing behavior”. For the same compound, the Swimming behavior ([1]; doses as worded) was “Mid and high doses of methylone significantly increased swimming”, the Climbing behavior ([1]; doses as worded, listed as methylone) was “Climbing was only increased at the lowest dose of methylone” and the “Antidepressant-like effect of multiple lower doses” value ([1]; four […] IP doses 20.5, 8.5, 4.5, 0.5 h before test) was “significant antidepressant-like effects”. The “Immobility vs. saline vehicle” value ([1]; single dose 5, 10, 15, 20 and 30 mg/kg IP, 30 min before test) was “significantly reduced immobility”, the IC50 [2] was 4.28 µM and the Ki [2] was 3.75 µM. The “% Activity” value [3] was 1.4%, the “% Activity” value [4] was −0.2% and the “Enhancement of fear extinction recall vs. saline controls” value [5] was ~60%.
